The results in this text go back to patent US20250134860A1, “NOVEL COMPOUND, AND COMPOSITION FOR PREVENTING, ALLEVIATING OR TREATING BACTERIAL INFLAMMATION AND INFLAMMASOME-MEDIATED DISEASES, COMPRISING SAME AS ACTIVE INGREDIENT” (Quorum Bio Co., Ltd., priority 2022, published 2025).

The structures appear in SMILES notation.

For data set [1], the system named is gingipain genes (rgpA, rgpB, kgp). Description: Inhibitory effect on gingipain expression of P. gingivalis (RT-qPCR). It counts as cell-based, Porphyromonas gingivalis. The conditions noted are these: DPD 10 μM + compound 2 μM; 48 hours; normalized to 16s rRNA. The protocol:
The compounds of Examples were respectively treated onto the medium cultured with P. gingivalis, and the expression levels of three gingipain proteins (lysine-gingipain (Kgp), arginine-gingipain A (RgpA), and arginine-gingipain B (RgpB)) produced by P. gingivalis, which are major virulence factors and proteolytic enzymes, were confirmed.
The culture medium containing 10 μM of DPD (4,5-dihydroxy-2,3-pentane dione), which is a precursor of the bacterial signal substance (Autoinducer-2), and the culture medium containing 2 μM of the example compound or not were respectively dispensed into a cell culture plate (48 well plate), and then P. gingivalis (2×10^8 cell/ml) were inoculated for each group. The culture medium cultured with bacteria was cultured at 37° C. under anaerobic conditions (10% H2, 10% CO2, and 80% N2) for 48 hours.
After 48 hours, each culture medium was centrifuged at 13,000 rpm for 1 minute to remove the supernatant, and total RNA was extracted using easy-BLUE™ Total RNA Extraction kit (iNtRON Biotechnology, Sungnam, Korea) to synthesize cDNA, and then the expression of the gingipain gene was confirmed by real-time PCR method. cDNA was synthesized using AccuPower® CycleScript RT PreMix dN6 (Bioneer, Daejeon, Korea), and real-time (quantitative) reverse transcription PCR (RT-qPCR) was carried out using Power SYBR™ Green PCR Master Mix (Applied Biosystems, Foster City, CA, USA).
RT-qPCR amplification conditions were as follows: after enzyme activation at 95° C. for 3 minutes, denaturation at 95° C. for 10 seconds and primer annealing at 60° C. for 30 seconds were repeated 40 times, and analysis was performed using a Bio-Rad CFX Connect Real-Time PCR Detection System (Bio-Rad, Hercules, CA, USA). To normalize the expression level of the gingipain gene, the 16s rRNA gene was used, and the gene expression level was calculated using the Comparative Ct Method (ΔΔCt), which is shown in FIGS. 5a to 5c.

For data set [2], the system named is mouse bone marrow-derived macrophages. Kind of data set: Cytotoxicity in mouse bone marrow-derived macrophages (MTT). The data set is classed as cell-based. To be noted: at a concentration of 16 μM or less (0.5-16 μM tested), 24 hours. Here is the method: Bone marrow was isolated from the femur and tibia of 8-12 week old C57BL/6J mice (available from Daehan Biolink) using a 26 g syringe, and the isolated bone marrow was differentiated into macrophages by culturing a medium containing IMDM media+30% L929 cell supernatant+10% fetal bovine serum+1% pencillin/streptomycin+1% non-essential amino acid+1% sodium pyruvate in a 150TT cell culture plate for 6 days, and used for the experiment.
The differentiated macrophages were seeded in 200 μl increments in a 48-well plate at a concentration of 1×10^6 cell/ml, and stabilized at 37° C. and 5% CO2 for 12 hours. […]
Then, the supernatant of the cultured cells was removed, treated with 200 μl of MTT solution having a concentration of 400 μg/ml, and then reacted at […] and 5% CO2 for 4 hours. Then, the reaction solution was removed, 200 μl of DMSO was added, and the absorbance was measured at 570 nm. At this time, the viability of cells treated with the sample was calculated based on the viability of untreated cells considered as 100%, and is shown in FIG. 6. […]
The supernatant of the cultured cells was then removed, 200 μl of MTT solution having a concentration of 400 μg/ml was added, and then reacted at […] and 5% CO2 for 4 hours. Then, the reaction solution was removed, 200 μl of DMSO was added, and the absorbance was measured at 570 nm. […]

In the next data set the test system is P. aeruginosa. Kind of data set: Inhibitory effect on biofilm formation in P. aeruginosa. It counts as cell-based, Pseudomonas aeruginosa. The conditions noted are these: 0.006, 0.06, 0.6 μg/ml; 48 hours; compared with control (CT). The protocol:
The inhibitory effect of the compound of Example 1-2 on biofilm formation in P. aeruginosa (available from the Korean Collection for Oral Microbiology (KCOM)) and A. baumannii (available from the Korea Culture Center of Microorganisms (KCCM)) was confirmed.
Sterilized cover glass slips (round, 12 mm radius) were placed individually at a bottom of each well of a cell culture plate (24-well plate) using forceps, and the compound of Example 1-2 was diluted in the medium (P. aeruginosa: LB medium, A. baumannii: NB medium) cultured with bacteria so that the final concentrations were 0.006 μg/ml, 0.06 μg/ml, and 0.6 μg/ml.
The prepared culture medium was dispensed into a cell culture plate in which glass slips were placed, and the respective bacteria were inoculated to a concentration of 2×10^7 cells/ml. […]
The biofilm in which bacteria cultured for each group were formed on glass slips was stained with 1% crystal violet solution for 15 minutes, and then washed three times with PBS (phosphate buffered saline) solution, and decolorized with acetone-alcohol (20:80, vol/vol). After the decolorizing solution containing crystal violet was put in 200 μl increments in a 96-well microplate for each group, the absorbance (OD590nm) was measured using an absorbance microplate reader (Epoch2, Bio-Tek, USA), and the biofilm formation level was compared.

Consider `Cc1ccc(C(=C2c3ccccc3C(=O)N2C)c2ccc(C)cc2)cc1` [Example 1-2, 3-(di-p-tolylmethylene)-2-methylisoindolin-1-one], for which the “expression levels of three gingipain genes (rgpA, rgpB, kgp) increased by DPD” value in data set [1] is “reduced”. In addition, the “cytotoxicity (cell viability, MTT)” value in data set [2] is on record as “did not exhibit cytotoxicity”. For the same molecule, the “biofilm formation of P. aeruginosa” value in the data set on P. aeruginosa was “significantly suppressed in a concentration-dependent manner”.
